# Reference: patent US4880809A, “1,4-disubstituted piperazines (or homopiperazines) as platelet-activating factor antagonists” (Takeda Chemical Industries, Ltd., priority 1987, dated 1989)
# Counter-ions that a name gives are not always drawn.
# Tests used:
# [1] = system: PAF-Induced Platelet Aggregation; assay: Inhibitory Action on PAF-Induced Platelet Aggregation; assay type: cell-based, New Zealand white male rabbits; conditions: Oryctolagus cuniculus, Drug Concentration: 3 × 10^-5 M, rabbit PRP
# Method: Blood was collected from the hearts of conscious New Zealand white male rabbits weighing 2 to 3 kg using citric acid as an anticoagulant (one volume part of 3.15% citric acid per 9 volume parts of the whole blood). The blood was subjected to a centrifuge at 800 rpm for ten minutes to obtain platelet rich plasma (PRP). The remaining blood after collecting the PRP was subjected to a centrifuge at 3000 rpm for ten minutes to obtain platelet poor plasma (PPP). PRP was diluted with PPP, and the number of platelets was adjusted to 500,000/μl. Platelet aggregation was examined by means of turbidimetry [Born, Nature, 194, 927-929 (1962)] with 8 channel aggregometer (NBS HEMA TRACER 6 Nikoh, Bioscience, Japan). More concretely, PRP (250 μl) was kept warm (37° C.) for three minutes in a silicon-processed cuvette, to which was added a test sample (25 μl) dissolved in a physiological saline or in 10mM dimethylsulfoxide followed by dilution with a physiological saline. Two minutes later, PAF (25 μl, 3×10^-9 -1×10^-8 M), dissolved in a physiological saline, was added and then the maximum aggregation rate was determined. As the control, physiological saline without test sample was added to the cuvette, and the inhibitory rate thereon was determined.
# [2] = system: PAF-Induced Hypotension; assay: Inhibitory Action on PAF-Induced Hypotension; assay type: in vivo, SD (Jcl) male rats; conditions: po, 30 mg/kg p.o., rat
# Method: SD (Jcl) male rats of 6 to 8 week old were subjected to the experiment. After fasting overnight, the rats were cannulated into the femoral artery and vein under anesthesia with pentobarbital. A transducer (MPU-0.5-290O-III, TOYO BALDWIN, Japan) was connected with the artery cannula, and blood pressure was continuously measured. […] The rate of inhibition of lowering of blood pressure after administration of the test samples against the control was evaluated.
Structure (SMILES),inhibition at 30 µM [1] [%],inhibition in vivo at 30 mg/kg ([2]; after 1 hr) [%],inhibition in vivo at 30 mg/kg ([2]; after 2 hrs) [%],inhibition in vivo at 30 mg/kg ([2]; after 4 hrs) [%]
"COc1cc2c(cc1OC)CCCCC(C(=O)N1CCN(Cc3cc(OC)c(OC)c(OC)c3)CC1)=C2 [Example 84, 1-(2,3-dimethoxy-5,6,7,8-tetrahydrobenzocycloocten-9-ylcarbonyl)-1-(3,4,5-trimethoxybenzyl)piperazine hydrochloride]",100,100,100,73
"COc1cc2c(cc1OC)CCCCC(C(=O)N1CCN(C(=O)c3cc(OC)c(OC)c(OC)c3)CC1)=C2 [Example 85, 1-(2,3-dimethoxy-5,6,7,8-tetrahydrobenzocycloocten-9-ylcarbonyl)-4-(3,4,5-trimethoxybenzoyl)piperazine]",100,100,100,100
